According to patent publication US8299296B2, “Spiro compounds and pharmaceutical use thereof” (Japan Tobacco Inc., priority 2007, dated 2012):
Counter-ions that a name gives are not always drawn.

What follows are compounds tested against T1, human GPR40 (Homo sapiens, UniProt O14842) (assay: Ca2+ mobilization (FLIPR) in a stable GPR40-expressing cell; GPR40 agonist activity). Settings: compound concentration corresponding to 50% PosiC, 100% = intracellular calcium level induced by 80 μM palmitic acid.
T1 construct: expressed in transfected cells
T1 sequence (O14842 whole entry): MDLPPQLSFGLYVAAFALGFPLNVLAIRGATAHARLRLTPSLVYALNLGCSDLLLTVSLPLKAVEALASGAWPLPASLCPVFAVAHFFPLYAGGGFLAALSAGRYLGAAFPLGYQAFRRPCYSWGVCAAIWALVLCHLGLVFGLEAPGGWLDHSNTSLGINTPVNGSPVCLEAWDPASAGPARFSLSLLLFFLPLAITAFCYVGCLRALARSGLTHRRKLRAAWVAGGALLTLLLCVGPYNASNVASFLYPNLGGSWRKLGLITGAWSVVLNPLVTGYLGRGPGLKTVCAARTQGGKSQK
Type: cell-based
Protocol: Evaluation of effect of test compounds on Ca^2+ mobilization by using a stable GPR40-expressing cell A stable human GPR40-expressing HEK293 cell was used. A cell suspension was prepared such that the above-mentioned cells were present at 6×10^5 cells/mL in a cell culture medium (D-MEM (Nikken Bio Medical Laboratory) supplemented with 10% (v/v) fetal bovine serum (Biowest) and 1% (v/v) penicillin-streptomycin solution (Invitrogen)). The cell suspension was plated in a 384-well plate (poly-D-lysine coated plate; Falcon) in a volume of 25 μl/well, and the plate was incubated at 37° C. in an atmosphere of 5% CO2 overnight. Each test compound was added to the cell at each concentration as below, and then the change in intracellular calcium level was measured by FLIPR^TETRA (Molecular Devices). Before the FLIPR assay, the following preparative solutions were prepared. First, an assay buffer was prepared for use in the preparation of a fluorescent dye solution and a diluent buffer solution. The assay buffer was prepared by adding 1M HEPES solution (Invitrogen) to Hanks' Balanced Salt Solution (Invitrogen), followed by adjusting the pH to 7.4 with 1M NaOH (Nacalai Tesque). Next, the fluorescent dye solution and the diluent buffer solution were prepared. The fluorescent dye solution was prepared in accordance with the instruction manual attached to Fluo-4NW calcium assay kit (Invitrogen), followed by addition of bovine serum albumin (Sigma) to a final concentration of 0.1% (w/v). The diluent buffer solution was prepared by adding bovine serum albumin (Sigma) to the assay buffer to give a final concentration of 0.1% (w/v). After removing a medium supernatant from the cell culture plate incubated overnight, the fluorescent dye solution was added to the plate in a volume of 25 μl/well. The plate was incubated at 37° C. in an atmosphere of 5% CO2 for 90 minutes to promote the fluorescent dye uptake in the cell. Meanwhile, the test compounds (i.e., the compounds prepared in Examples) dissolved in dimethyl sulfoxide (DMSO; Nacalai Tesque) were diluted with the diluent buffer solution, to prepare each compound solution at each concentration. In addition, a palmitic acid solution was prepared as a positive control solution (hereinafter abbreviated as PosiC). A 40 μl aliquot of each sample solution prepared as above was added to each well of a 384-well polypropylene plate to prepare a compound plate. Finally, after the sufficient uptake of the fluorescent dye in the cell, the cell plate and the compound plate were set to FLIPR^TETRA. After the above pretreatment, the change in intracellular calcium level was measured by FLIPR^TETRA upon addition of 25 μl of each test compound solution at each concentration. The GPR40 agonist activity of each test compound at each concentration was determined as a relative activity level (% PosiC) with the intracellular calcium level induced by 80 μM palmitic acid (a GPR40 agonist) set to 100%. Next, each compound concentration corresponding to 50% PosiC was calculated based on the % PosiC value, to compare between agonist activities of the test compounds. In the tables, “++++” indicates 0.01 μM or more but less than 0.1 μM, “+++” indicates 0.1 μM or more but less than 1 μM, “++” indicates 1 μM or more but less than 10 μM, and “+” indicates 10 μM or more for 50% posiC value. In the tables, “N.T.” indicates “not tested”.
In the case of `O=C(O)CC(c1ccc(OCC2CCCC3(CCCCC3)C2)cc1)c1ncco1` (racemic) [Example 66, 3-oxazol-2-yl-3-[4-(spiro[5.5]undec-2-ylmethoxy)-phenyl]-propionic acid], the EC50 is reported as 100 to 1000 nM.
In the case of `CC1(C)CCCC2(CCCC(COc3ccc(CCC(=O)O)cc3)C2)C1` (racemic) [Example 48, 3-[4-(8,8-dimethyl-spiro[5.5]undec-2-ylmethoxy)-phenyl]-propionic acid], the EC50 is reported as 1000 to 10000 nM.
`CC#C[C@@H](CC(=O)O)c1ccc(OCC2=C[C@@]3(CCC2)CC[C@@H](O)C3)cc1` [Example 101, (3S)-3-[4-((2R,5S)-2-hydroxy-spiro[4.5]dec-6-en-7-ylmethoxy)-phenyl]-hex-4-ynoic acid sodium salt] was tested, and the EC50 was 100 to 1000 nM.
In the case of `CC#CC(CC(=O)O)c1ccc(COC2CCCC3(CCCCC3)C2)cc1` (racemic) [Example 82, 3-[4-(spiro[5.5]undec-2-yloxymethyl)-phenyl]-hex-4-ynoic acid], the EC50 is reported as 1000 to 10000 nM.
Compound `CC#C[C@@H](CC(=O)O)c1ccc(OCC2=C[C@]3(CCC2)CC[C@@H](O)C3)cc1` [Example 105, (3S)-3-[4-((2R,5R)-2-hydroxy-spiro[4.5]dec-6-en-7-ylmethoxy)-phenyl]-hex-4-ynoic acid sodium salt] has an EC50 of 1000 to 10000 nM.
`O=C1NC(=O)C(Cc2ccc(OCC3CCCC4(CCCCC4)C3)cc2)S1` (racemic) [Example 67, 5-[4-(spiro[5.5]undec-2-ylmethoxy)-benzyl]-thiazolidine-2,4-dione] was tested, and the EC50 was ≥ 10000 nM.
Compound `CC#C[C@@H](CC(=O)O)c1ccc(OCC2CCC3(CCCC3)CC2)cc1` [Example 22, (S)-3-[4-(spiro[4.5]dec-8-ylmethoxy)-phenyl]-hex-4-ynoic acid] has an EC50 of 100 to 1000 nM.
Compound `CC#C[C@@H](CC(=O)O)c1ccc(OCC2=CCCC3(CCCCC3)C2)cc1` [Example 2, (S)-3-[4-(spiro[5.5]undec-2-en-2-ylmethoxy)-phenyl]-hex-4-ynoic acid sodium salt] has an EC50 of 10 to 100 nM.
In the case of `CC#C[C@@H](CC(=O)O)c1ccc(OCC2=CCCC3(CCCCCC3)C2)cc1` [Example 4, (S)-3-[4-(spiro[5.6]dodec-2-en-2-ylmethoxy)-phenyl]-hex-4-ynoic acid sodium salt], the EC50 is reported as 10 to 100 nM.
In the case of `CC#C[C@@H](CC(=O)O)c1ccc(OCC2=CCC3(CCCC3)CC2)cc1` [Example 25, (S)-3-[4-(spiro[4.5]dec-7-en-8-ylmethoxy)-phenyl]-hex-4-ynoic acid], the EC50 is reported as 100 to 1000 nM.
Compound `CC#C[C@@H](CC(=O)O)c1ccc(OCC2CCC3(CCCCC3)C2)cc1` (stereo partly drawn) [Example 27, (3S)-3-[4-(spiro[4.5]dec-2-ylmethoxy)-phenyl]-hex-4-ynoic acid sodium salt] has an EC50 of 100 to 1000 nM.
`O=C(O)CCc1ccc(OCC2CCCC3(CCCC3)C2)nc1` (racemic) [Example 113, 3-[6-(spiro[4.5]dec-7-ylmethoxy)-pyridin-3-yl]-propionic acid hydrochloride] gave an EC50 of 1000 to 10000 nM.
`CC#C[C@@H](CC(=O)O)c1ccc(OC2CCCC3(CCCCC3)C2)cc1` (mixture of isomers) [Example 64, (3S)-3-[4-(spiro[5.5]undec-2-yloxy)-phenyl]-hex-4-ynoic acid] was tested, and the EC50 was 100 to 1000 nM.
Compound `CCC(CC(=O)O)c1ccc(OCC2CCCC3(CCCCC3)C2)cc1` (racemic) [Example 87, 3-[4-(spiro[5.5]undec-2-ylmethoxy)-phenyl]-pentanoic acid] has an EC50 of 1000 to 10000 nM.
With `CC#C[C@@H](CC(=O)O)c1ccc(OCC2CCCC3(CCCCC3)C2)cc1` (mixture of isomers) [Example 28, (3S)-3-[4-(spiro[5.5]undec-2-ylmethoxy)-phenyl]-hex-4-ynoic acid] the EC50 was 10 to 100 nM.
With `CC#C[C@@H](CC(=O)O)c1ccc(OCC2=CC3(CCCC3)CC2)cc1` [Example 17, (S)-3-[4-(spiro[4.4]non-1-en-2-ylmethoxy)-phenyl]-hex-4-ynoic acid] the EC50 was 100 to 1000 nM.
For `CC#C[C@@H](CC(=O)O)c1ccc(OCC2=CCC3(CCCC3)C2)cc1` [Example 11, (S)-3-[4-(spiro[4.4]non-2-en-2-ylmethoxy)-phenyl]-hex-4-ynoic acid], the EC50 was 100 to 1000 nM.
`CC#C[C@@H](CC(=O)O)c1ccc(OCC2CCCCC3(CC3)C2)cc1` (mixture of isomers) [Example 116, (3S)-3-[4-(spiro[2.6]non-5-ylmethoxy)-phenyl]-hex-4-ynoic acid] was tested, and the EC50 was 1000 to 10000 nM.
In the case of `CC#C[C@@H](CC(=O)O)c1ccc(OCC2CCCC3(CCCCC3)C2O)cc1` (mixture of isomers) [Example 70, (3S)-3-[4-(1-hydroxy-spiro[5.5]undec-2-ylmethoxy)-phenyl]-hex-4-ynoic acid], the EC50 is reported as 100 to 1000 nM.
With `CC#C[C@@H](CC(=O)O)c1ccc(OCC2CCCC3(CCCCC3)C2)cc1` (single isomer, unassigned) [Example 32] the EC50 was 100 to 1000 nM.
Compound `C#CC(CC(=O)O)c1ccc(OCC2CCCC3(CCCCC3)C2)cc1` (racemic) [Example 85, 3-[4-(spiro[5.5]undec-2-ylmethoxy)-phenyl]-pent-4-ynoic acid] has an EC50 of 1000 to 10000 nM.
Work on `CC#C[C@@H](CC(=O)O)c1ccc(OCC2CCCC3(CCCC3)C2)cc1` (single isomer, unassigned) [Example 39] yielded an EC50 of 100 to 1000 nM.
`CC#C[C@@H](CC(=O)O)c1ccc(OCC2=CC3(CCCC3)CCC2)cc1` [Example 8, (S)-3-[4-(spiro[4.5]dec-6-en-7-ylmethoxy)-phenyl]-hex-4-ynoic acid sodium salt] showed an EC50 of 100 to 1000 nM.
For `CC#C[C@@H](CC(=O)O)c1ccc(OCC2=CCC3(CCCCC3)CC2)cc1` [Example 73, (3S)-3-[4-(spiro[5.5]undec-2-en-3-ylmethoxy)-phenyl]-hex-4-ynoic acid], the EC50 was 100 to 1000 nM.
`CC#C[C@H](c1ccc(OCC2CCCC3(CCCCC3)C2)cc1)C1SC(=O)NC1=O` (mixture of isomers) [Example 68, 5-{(1S)-1-[4-(spiro[5.5]undec-2-ylmethoxy)-phenyl]-but-2-ynyl}-thiazolidine-2,4-dione] gave an EC50 of 1000 to 10000 nM.
Work on `CC#C[C@@H](CC(=O)O)c1ccc(OCC2=C[C@@]3(CCC2)CCC(=O)C3)cc1` [Example 97, (3S)-3-[4-((5S)-2-oxo-spiro[4.5]dec-6-en-7-ylmethoxy)-phenyl]-hex-4-ynoic acid sodium salt] yielded an EC50 of 100 to 1000 nM.
`CC1(C)CC(COc2ccc(CCC(=O)O)cc2)CC2(CCCC2)C1` (racemic) [Example 115, 3-[4-(9,9-dimethyl-spiro[4.5]dec-7-ylmethoxy)-phenyl]-propionic acid] was tested, and the EC50 was 1000 to 10000 nM.
`CC#C[C@@H](CC(=O)O)c1ccc(OCC2=C[C@@]3(CCC2)CC[C@H](O)C3)cc1` [Example 99, (3S)-3-[4-((2S,5S)-2-hydroxy-spiro[4.5]dec-6-en-7-ylmethoxy)-phenyl]-hex-4-ynoic acid sodium salt] was tested, and the EC50 was 1000 to 10000 nM.
With `CCC#CC(CC(=O)O)c1ccc(OCC2CCCC3(CCCCC3)C2)cc1` (racemic) [Example 84, 3-[4-(spiro[5.5]undec-2-ylmethoxy)-phenyl]-hept-4-ynoic acid] the EC50 was 1000 to 10000 nM.
`CC#C[C@@H](CC(=O)O)c1ccc(OCC2=CC3(CCCCC3)CCC2)cc1` [Example 9, (S)-3-[4-(spiro[5.5]undec-1-en-2-ylmethoxy)-phenyl]-hex-4-ynoic acid] gave an EC50 of 100 to 1000 nM.
`CC#C[C@@H](CC(=O)O)c1ccc(OCC2=CCCC3(CCCC3)C2)cc1` [Example 6, (S)-3-[4-(spiro[4.5]dec-7-en-7-ylmethoxy)-phenyl]-hex-4-ynoic acid sodium salt] gave an EC50 of 100 to 1000 nM.
Work on `O=C(O)CCc1ccc(OCC2CCC3(CCCCC3)C2)cc1` (racemic) [Example 52, 3-[4-(spiro[4.5]dec-2-ylmethoxy)-phenyl]-propionic acid] yielded an EC50 of 1000 to 10000 nM.
`CCOC(CC(=O)O)c1ccc(OCC2=CC3(CCCCC3)CCC2)cc1` (single isomer, unassigned; (-)) [Example 120, (−)-3-ethoxy-3-[4-(spiro[5.5]undec-1-en-2-ylmethoxy)-phenyl]-propionic acid L-lysine salt] showed an EC50 of 100 to 1000 nM.
With `COC(CC(=O)O)c1ccc(OCC2CCCC3(CCCCC3)C2)cc1` (racemic) [Example 80, 3-methoxy-3-[4-(spiro[5.5]undec-2-ylmethoxy)-phenyl]-propionic acid] the EC50 was 1000 to 10000 nM.
